In patent US20030157205A1, “Inhibitory and preventative effects of processed morinda citrifolia on mutagenesis and carcinogenesis in mammals” (priority 2001, published 2003):

Tested on: mammary gland carcinogenesis induced by 17 β-estradiol (E2)
Test: Estrogen (E2 pellet)-induced mammary carcinogenesis in female ACI rats
Format: in vivo
Settings: for survival rate: control 100%, placebo 0%
Excerpt: This study indicates the preventative effects of Methyl Sulfonyl Methane (MSM), processed Morinda citrifolia products (e.g., Tahitian Noni juice), and their combination on estrogen-induced mammary carcinogenesis in female ACI rats.
In the study, the preventative effects of MSM, Morinda citrifolia, and their combination on mammary gland carcinogenesis induced by 17 β-estradiol (estrogen)(E2) pellet implants in female ACI rats was studied. In the experiment, sixty (60), five week old female rats were divided into four groups, fifteen (15) rats each, and placed on regular diets. Another eight (8) female ACI rats were served as the age-matched controls. Five percent placebo, five percent Morinda citrifolia, five percent MSM, a combination of five percent Morinda citrifolia and MSM in drinking water was supplied to the animals in different groups until ninety days after E2 implantation. Two weeks later, all animals were implanted subcutaneously with a 25 mg pellet containing 22.5 mg of 17 β-estradiol (e2) mixed with 2.5 mg cholesterol, and the age-matched control animals received a 25 mg cholesterol pellet implant.

SMILES: CS(C)(=O)=O [MSM, Methyl Sulfonyl Methane]
- body weight loss (5% in drinking water, E2-implanted female ACI rats, placebo group had significant loss vs cholesterol control): slight body weight loss
- percent of the rats with mammary tumors (5% in drinking water, E2 implant, placebo group one hundred percent): fifty-seven
- number of tumors per rat (5% in drinking water, E2 implant, placebo group three to seven): one to four
- survival rate (160 days after E2 implantation): 73%
- survival rate (180 days after E2 implantation): 20%
- average tumor area (180 days after E2 implantation, placebo 17): 12 mm2
- survival rate (200 days after E2 implantation): 0%
